Among the data in US20230031406A1, “COMPOUNDS AND COMPOSITIONS FOR TREATING CONDITIONS ASSOCIATED WITH NLRP ACTIVITY” (Novartis AG, priority 2018, published 2023) are IC50 values, retold here.

For experiment [1], the system named is PMA-differentiated THP-1 cells. In words: hTHP-1 assay containing 10% fetal bovine serum (IL-1β production, Tables B5 and B6). In kind it is cell-based, human. The method in brief:
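IL-1β release from PMA-differentiated THP-1 macrophage-like cells was triggered by 5 μM gramicidin for 2 h after 1 h compound exposure, then measured by HTRF.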

Experiment [2] has as its system PMA-differentiated THP-1 cells. In words: IL-1β production in PMA-differentiated THP-1 cells stimulated with gramicidin (hTHP-1 assay containing 2% fetal bovine serum; Procedures 1 and 2). In kind it is cell-based, human. The method, boiled down: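 Secreted IL-1β, read by HTRF, after gramicidin challenge (5 μM, 2 h) of THP-1 cells differentiated with PMA (20 ng/ml, 16-18 h) and plated at 50,000 cells/well in 2% FBS medium. Compounds, 0.0017-100 μM final with 0.37% DMSO, were added 1 h before stimulation.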

[3] abbreviates: Homo sapiens, THP-1, read-out: hTHP-1 IC50 in 10% FBS, hTHP-1 assay containing 10% fetal bovine serum, Table B5.
Setting [4] is: Homo sapiens, THP-1, read-out: hTHP-1 IC50 in 2% FBS, hTHP-1 assay containing 2% fetal bovine serum, Table B5.

The structures appear in SMILES notation.

Broadly, the IC50 is the concentration that inhibits the measured activity by half. Consider `CCn1cc(F)c(S(N)(=O)=NC(=O)Nc2c(C)c(C(F)(F)F)nc3c2CC(C)C3)n1` (centres unmarked) [Compound 1101, N′-((3,6-dimethyl-2-(trifluoromethyl)-6,7-dihydro-5H-cyclopenta[b]pyridin-4-yl)carbamoyl)-1-ethyl-4-fluoro-1H-pyrazole-3-sulfonimidamide], for which the IC50 in experiment [1] (read-out: hTHP-1 IC50 in 10% FBS, hTHP-1 assay containing 10% fetal bovine serum, Table B5, listed as 796) was in the range of 200 to 1000 nM; in experiment [2] (read-out: hTHP-1 IC50 in 2% FBS, hTHP-1 assay containing 2% fetal bovine serum, Table B5, listed as 796), 0.008 to 0.04 µM.
In the case of `CCn1cc(F)c([S@](N)(=O)=NC(=O)Nc2c(C)c(C(F)(F)F)nc3c2[C@H](C)CC3)n1` (single isomer, unassigned) [Compound 1100a, (R, R) or (R, S)-N′-((3,5-dimethyl-2-(trifluoromethyl)-6,7-dihydro-5H-cyclopenta[b]pyridin-4-yl)carbamoyl)-1-ethyl-4-fluoro-1H-pyrazole-3-sulfonimidamide], the IC50 lay within 1000 to 5000 nM in experiment [1] (setting [3]) and 5 to 30 µM in experiment [2] (setting [4]).
For the compound `CCn1cc(F)c(S(N)(=O)=NC(=O)Nc2c(C)c(C(F)(F)F)nc3c2C(C)CC3)n1` (centres unmarked) [Compound 1100, N′-((3,5-dimethyl-2-(trifluoromethyl)-6,7-dihydro-5H-cyclopenta[b]pyridin-4-yl)carbamoyl)-1-ethyl-4-fluoro-1H-pyrazole-3-sulfonimidamide], the IC50 in experiment [1] (read-out: hTHP-1 IC50 in 10% FBS, hTHP-1 assay containing 10% fetal bovine serum, Table B5, listed as 795) lay in the range of 1000 to 5000 nM; in experiment [2] (read-out: hTHP-1 IC50 in 2% FBS, hTHP-1 assay containing 2% fetal bovine serum, Table B5, listed as 795), 1 to 5 µM.
With `CC(C)n1cc(F)c(S(N)(=O)=NC(=O)Nc2c3c(nc(C4CC4)c2C2CC2)CCC3)n1` (single isomer, unassigned) [Compound 1103b, (S) or (R)-N′-((2,3-dicyclopropyl-6,7-dihydro-5H-cyclopenta[b]pyridin-4-yl)carbamoyl)-4-fluoro-1-isopropyl-1H-pyrazole-3-sulfonimidamide], the IC50 fell in the range of 1000 to 5000 nM in experiment [1] (read-out: hTHP-1 IC50 in 10% FBS, hTHP-1 assay containing 10% fetal bovine serum, Table B5, listed as 816) and 5 to 30 µM in experiment [2] (read-out: hTHP-1 IC50 in 2% FBS, hTHP-1 assay containing 2% fetal bovine serum, Table B5, listed as 816).
In the case of `CCn1cc(F)c(S(N)(=O)=NC(=O)Nc2c(C)c(C(F)(F)F)nc3c2CC(C)C3)n1` (single isomer, unassigned) [Compound 1101b, (S, R) or (S, S)-N′-((3,6-dimethyl-2-(trifluoromethyl)-6,7-dihydro-5H-cyclopenta[b]pyridin-4-yl)carbamoyl)-1-ethyl-4-fluoro-1H-pyrazole-3-sulfonimidamide], the IC50 was 1000 to 5000 nM in experiment [1] (read-out: hTHP-1 IC50 in 10% FBS, hTHP-1 assay containing 10% fetal bovine serum, Table B5, listed as 822) and 1 to 5 µM in experiment [2] (read-out: hTHP-1 IC50 in 2% FBS, hTHP-1 assay containing 2% fetal bovine serum, Table B5, listed as 822).
With `CCn1cc(F)c([S@](N)(=O)=NC(=O)Nc2c(C)c(C(F)(F)F)nc3c2[C@@H](C)CC3)n1` (single isomer, unassigned) [Compound 1100b, (R, S) or (R, R)-N′-((3,5-dimethyl-2-(trifluoromethyl)-6,7-dihydro-5H-cyclopenta[b]pyridin-4-yl)carbamoyl)-1-ethyl-4-fluoro-1H-pyrazole-3-sulfonimidamide], the IC50 in experiment [1] (setting [3]) fell in the range of 40 to 200 nM; in experiment [2] (setting [4]), 0.2 to 1 µM.
Turning to `CCn1cc(F)c(S(N)(=O)=NC(=O)Nc2c(C)c(C(F)(F)F)nc3c2CC(C)C3)n1` (single isomer, unassigned) [Compound 1101c, (S, S) or (S, R)-N′-((3,6-dimethyl-2-(trifluoromethyl)-6,7-dihydro-5H-cyclopenta[b]pyridin-4-yl)carbamoyl)-1-ethyl-4-fluoro-1H-pyrazole-3-sulfonimidamide], the half-inhibitory concentration (IC50) was 5000 to 30000 nM in experiment [1] (read-out: hTHP-1 IC50 in 10% FBS, hTHP-1 assay containing 10% fetal bovine serum, Table B5, listed as 823) and 5 to 30 µM in experiment [2] (read-out: hTHP-1 IC50 in 2% FBS, hTHP-1 assay containing 2% fetal bovine serum, Table B5, listed as 823).
Turning to `CC(C)n1cc(F)c(S(N)(=O)=NC(=O)Nc2c3c(nc(C4CC4)c2C2CC2)CCC3)n1` (centres unmarked) [Compound 1103, N′-((2,3-dicyclopropyl-6,7-dihydro-5H-cyclopenta[b]pyridin-4-yl)carbamoyl)-4-fluoro-1-isopropyl-1H-pyrazole-3-sulfonimidamide], the figures for the IC50 in experiment [1] (setting [3]) and in experiment [2] (setting [4]) were 40 to 200 nM and 0.04 to 0.2 µM, respectively.
For the compound `CCn1cc(F)c(S(N)(=O)=NC(=O)Nc2c(C)c(C(F)(F)F)nc3c2C(C)CC3)n1` (single isomer, unassigned) [Compound 1100d, (S, S) or (S, R)-N′-((3,5-dimethyl-2-(trifluoromethyl)-6,7-dihydro-5H-cyclopenta[b]pyridin-4-yl)carbamoyl)-1-ethyl-4-fluoro-1H-pyrazole-3-sulfonimidamide], the concentration for half-maximal inhibition (IC50) in experiment [1] (Homo sapiens, THP-1, read-out: hTHP-1 IC50 in 10% FBS, 10% fetal bovine serum, Table B5, value printed as a bound, not a class symbol) is over 30000 nM; in experiment [2] (Homo sapiens, THP-1, read-out: hTHP-1 IC50 in 2% FBS, 2% fetal bovine serum, Table B5, value printed as a bound, not a class symbol), over 30 µM.
With `CC(C)n1cc(F)c(S(N)(=O)=NC(=O)Nc2c3c(nc4c2CCC42CC2)CCC3)n1` (single isomer, unassigned) [Compound 1102b, (S) or (R)-4-Fluoro-1-isopropyl-N′-((1′,5′,6′,7′-tetrahydro-2′H-spiro [cyclopropane-1,3′-dicyclopenta[b,e]pyridin]-8′-yl)carbamoyl)-1H-pyrazole-3-sulfonimidamide], the IC50 in experiment [1] (read-out: hTHP-1 IC50 in 10% FBS, hTHP-1 assay containing 10% fetal bovine serum, Table B5, listed as 814) was in the range of 1000 to 5000 nM; in experiment [2] (read-out: hTHP-1 IC50 in 2% FBS, hTHP-1 assay containing 2% fetal bovine serum, Table B5, listed as 814), 1 to 5 µM.
